Values quoted from earlier work in patent US20240358747A1, “SOME GEL FORMULATIONS THAT PROVIDE WOUND HEALING AND THE SYNTHESIS OF DYSPROSIUM ERBIUM BORATE TRIHYDRATE (Dy0.5Er0.5BO3.3H2O) COMPOUND USED IN THESE FORMULATIONS” (VERTRATECH KIMYA SANAYI VE TICARET LIMITED SIRKETI, priority 2021, published 2024).

Settings: topical application of 3% boric acid to wounds

OB(O)O [boric acid]
length of stay in intensive care units: reduces the length of stay in intensive care units three times
